Measurements published in PMC7034945 (RSC Advances, 2019).

Tests used:
[1] = measured by HPLC
TZM-bl cells = conditions: Table 2; uninfected TZM-bl cells; NA = no cytotoxicity at the test concentration
HIV-1 NL4-3 virus = test: Anti-HIV-1 activity, multicycle assay with HIV-1 NL4-3 in TZM-bl cells; assay type: cell-based

## (S)-N-(1-((4-Methoxyphenyl)(methyl)amino)-1-oxo-3-phenylpropan-2-yl)-3-(1-(3-(thiophen-3-yl)propyl)-1H-1,2,3-triazol-4-yl)benzamide [III-15h]
[1]
  log P: 2.36
TZM-bl cells
  CC50: > 35.4 µM
HIV-1 NL4-3 virus; TZM-bl cells, at the test concentration
  anti-HIV-1 activity (in words): exhibited anti-HIV-1 activity at the test concentration
HIV-1 NL4-3 virus; Table 2, HIV-1 NL4-3, TZM-bl cells, NA = no anti-HIV-1 activity at the test concentration
  EC50: 9.37 ± 3.18 µM
